From ChEMBL document CHEMBL3832761, “MMV Pathogen Box Bioactivity Data” (2017)
Converted amounts (≈) assume the structure as drawn.

Legend:
Type in all cases: functional
[1] = tested on: Mycobacterium tuberculosis; test: AntiMycobacterium tuberculosis activity Non-Replicating form: Average MIC90 (uM)
[2] = tested on: Mycobacterium tuberculosis; test: AntiMycobacterium tuberculosis activity 1-week GAST/Fe MIC (uM); details: 168 h
[3] = tested on: Mycobacterium tuberculosis; test: AntiMycobacterium tuberculosis activity 2-week GAST/Fe MIC (uM); details: 336 h
[4] = tested on: Mycobacterium tuberculosis; test: AntiMycobacterium tuberculosis activity 1-week 7H9/ADC/Tw MIC (uM); details: 168 h
[5] = tested on: Mycobacterium tuberculosis; test: AntiMycobacterium tuberculosis activity 2-week 7H9/ADC/Tw MIC (uM); details: 336 h
[6] = tested on: Mycobacterium tuberculosis; test: AntiMycobacterium tuberculosis activity 2-week Alamar Blue 7H9/ADC/Tw MIC (uM); details: 336 h
[7] = tested on: Mycobacterium tuberculosis; test: AntiMycobacterium tuberculosis activity 1-week 7H9/glucose/BSA/Tx MIC (uM); details: 168 h
[8] = tested on: Mycobacterium tuberculosis; test: AntiMycobacterium tuberculosis activity 2-week 7H9/glucose/BSA/Tx MIC (uM); details: 336 h
[9] = tested on: Mycobacterium tuberculosis; test: AntiMycobacterium tuberculosis activity 1-week 7H9/DPPC/cholesterol/BSA/Tx MIC (uM); details: 168 h
[10] = tested on: Mycobacterium tuberculosis; test: AntiMycobacterium tuberculosis activity 2-week 7H9/DPPC/cholesterol/BSA/Tx MIC (uM); details: 336 h
[11] = tested on: Mycobacterium tuberculosis; test: AntiMycobacterium tuberculosis activity 1-week 7H9/cholesterol/BSA/Tx MIC (uM); details: 168 h
[12] = tested on: Mycobacterium tuberculosis; test: AntiMycobacterium tuberculosis activity 2-week Alamar Blue 7H9/cholesterol/BSA/Tx MIC (uM); details: 336 h
[13] = tested on: Mycobacterium tuberculosis; test: (§1) AntiMycobacterium tuberculosis activity day 10 in 7H9/2.5mM butyrate/pH6/0.1mM nitrite MIC90 (uM); details: 240 h
[14] = tested on: Mycobacterium tuberculosis; test: AntiMycobacterium tuberculosis activity day 21 in 7H9/2.5mM butyrate/pH6/0.1mM nitrite MIC90 (uM); details: 504 h
[15] = tested on: Mycobacterium tuberculosis; test: as §1; details: 240 h; remark: listed apart in the source
[16] = tested on: Mycobacterium tuberculosis; test: AntiMycobacterium tuberculosis activity day 21 MIC99 in 7H9/2.5mM butyrate/pH6/0.1mM nitrite MIC99 (uM); details: 504 h
[17] = tested on: Mycobacterium tuberculosis; test: AntiMycobacterium tuberculosis activity Replicating form: Average MIC90 (uM)
HepG2 = test: HepG2 CC50 (uM) Cytotoxicity; details: Homo sapiens

COc1cccc(-n2nnnc2S(C)(=O)=O)c1
MIC90 [1]: 3.34 µM (≈ 0.849 µg/mL)
MIC [2]: 0.78 µM (≈ 0.198 µg/mL)
MIC [3]: 1.2 µM (≈ 0.305 µg/mL)
MIC [4]: 12.5 µM (≈ 3.18 µg/mL)
MIC [5]: 25 µM (≈ 6.36 µg/mL)
MIC [6]: 25 µM (≈ 6.36 µg/mL)
MIC [7]: 9.4 µM (≈ 2.39 µg/mL)
MIC [8]: 25 µM (≈ 6.36 µg/mL)
MIC [9]: 12.5 µM (≈ 3.18 µg/mL)
MIC [10]: 50 µM (≈ 12.7 µg/mL)
MIC [11]: 19 µM (≈ 4.83 µg/mL)
MIC [12]: 50 µM (≈ 12.7 µg/mL)
MIC90 [13]: 6.25 µM (≈ 1.59 µg/mL)
MIC90 [14]: 12.5 µM (≈ 3.18 µg/mL)
MIC90 [15]: 6.25 µM (≈ 1.59 µg/mL)
MIC [16]: 12.5 µM (≈ 3.18 µg/mL)
MIC90 [17]: 9.47 µM (≈ 2.41 µg/mL)
CC50 (HepG2): 1.7 µM

Cc1nc2ccccn2c1C(=O)NCc1ccc(Cl)cc1
MIC90 [1]: 2 µM (≈ 0.6 µg/mL)
MIC [2]: 0.05 µM (≈ 0.015 µg/mL)
MIC [3]: 0.07 µM (≈ 0.021 µg/mL)
MIC [4]: > 50 µM
MIC [5]: > 50 µM
MIC [6]: 4.7 µM (≈ 1.41 µg/mL)
MIC [7]: 25 µM (≈ 7.49 µg/mL)
MIC [8]: > 50 µM
MIC [9]: 2.3 µM (≈ 0.689 µg/mL)
MIC [10]: 25 µM (≈ 7.49 µg/mL)
MIC [11]: 9.4 µM (≈ 2.82 µg/mL)
MIC [12]: 3.13 µM (≈ 0.938 µg/mL)
MIC90 [13]: 50 µM (≈ 15 µg/mL)
MIC90 [14]: 50 µM (≈ 15 µg/mL)
MIC90 [15]: > 50 µM
MIC [16]: > 50 µM
MIC90 [17]: > 100 µM
CC50 (HepG2): > 100 µM

Cc1cnc(N2CCN[C@@H](Cc3ccccc3)C2)nc1Oc1ccc(-n2ccnc2)cc1
MIC90 [1]: 27.7 µM (≈ 11.8 µg/mL)
MIC [2]: 6.25 µM (≈ 2.67 µg/mL)
MIC [3]: 9.4 µM (≈ 4.01 µg/mL)
MIC [4]: 25 µM (≈ 10.7 µg/mL)
MIC [5]: 37 µM (≈ 15.8 µg/mL)
MIC [6]: 19 µM (≈ 8.1 µg/mL)
MIC [7]: 19 µM (≈ 8.1 µg/mL)
MIC [8]: 37 µM (≈ 15.8 µg/mL)
MIC [9]: 12.5 µM (≈ 5.33 µg/mL)
MIC [10]: 37 µM (≈ 15.8 µg/mL)
MIC [11]: 12.5 µM (≈ 5.33 µg/mL)
MIC [12]: 50 µM (≈ 21.3 µg/mL)
MIC90 [13]: > 50 µM
MIC90 [14]: > 50 µM
MIC90 [15]: > 50 µM
MIC [16]: > 50 µM
MIC90 [17]: 8.88 µM (≈ 3.79 µg/mL)
CC50 (HepG2): 14.1 µM

NC(CC(=O)c1ccc(Cl)cc1Cl)C(Cl)(Cl)Cl (configuration not stated)
MIC90 [1]: 6.04 µM (≈ 2.03 µg/mL)
MIC [2]: 0.39 µM (≈ 0.131 µg/mL)
MIC [3]: 0.6 µM (≈ 0.201 µg/mL)
MIC [4]: 12.5 µM (≈ 4.19 µg/mL)
MIC [5]: 12.5 µM (≈ 4.19 µg/mL)
MIC [6]: 12.5 µM (≈ 4.19 µg/mL)
MIC [7]: 19 µM (≈ 6.37 µg/mL)
MIC [8]: 25 µM (≈ 8.39 µg/mL)
MIC [9]: 37 µM (≈ 12.4 µg/mL)
MIC [10]: 50 µM (≈ 16.8 µg/mL)
MIC [11]: 19 µM (≈ 6.37 µg/mL)
MIC [12]: 25 µM (≈ 8.39 µg/mL)
MIC90 [13]: 12.5 µM (≈ 4.19 µg/mL)
MIC90 [14]: 12.5 µM (≈ 4.19 µg/mL)
MIC90 [15]: > 50 µM
MIC [16]: > 50 µM
MIC90 [17]: 17.4 µM (≈ 5.83 µg/mL)
CC50 (HepG2): 37.9 µM

COc1cccc(-c2nc3c(N4CCCC4)cccc3n2CC2CCCN2)n1 (configuration not stated)
MIC90 [1]: 80.6 µM (≈ 30.4 µg/mL)
MIC [2]: 4.7 µM (≈ 1.77 µg/mL)
MIC [3]: 4.7 µM (≈ 1.77 µg/mL)
MIC [4]: 9.4 µM (≈ 3.55 µg/mL)
MIC [5]: 9.4 µM (≈ 3.55 µg/mL)
MIC [6]: 6.25 µM (≈ 2.36 µg/mL)
MIC [7]: 25 µM (≈ 9.44 µg/mL)
MIC [8]: 37 µM (≈ 14 µg/mL)
MIC [9]: 25 µM (≈ 9.44 µg/mL)
MIC [10]: 50 µM (≈ 18.9 µg/mL)
MIC [11]: 37 µM (≈ 14 µg/mL)
MIC [12]: 9.4 µM (≈ 3.55 µg/mL)
MIC90 [13]: 12.5 µM (≈ 4.72 µg/mL)
MIC90 [14]: 25 µM (≈ 9.44 µg/mL)
MIC90 [15]: > 50 µM
MIC [16]: > 50 µM
MIC90 [17]: 38.5 µM (≈ 14.5 µg/mL)
CC50 (HepG2): 25 µM

NC(=O)c1cc(-c2ccsc2)ccc1OCCOc1ccccc1
MIC90 [1]: 3.96 µM (≈ 1.34 µg/mL)
MIC [2]: 0.39 µM (≈ 0.132 µg/mL)
MIC [3]: 0.6 µM (≈ 0.204 µg/mL)
MIC [4]: > 50 µM
MIC [5]: > 50 µM
MIC [6]: 19 µM (≈ 6.45 µg/mL)
MIC [7]: > 50 µM
MIC [8]: > 50 µM
MIC [9]: 12.5 µM (≈ 4.24 µg/mL)
MIC [10]: > 50 µM
MIC [11]: > 50 µM
MIC [12]: 6.25 µM (≈ 2.12 µg/mL)
MIC90 [13]: > 50 µM
MIC90 [14]: > 50 µM
MIC90 [15]: > 50 µM
MIC [16]: > 50 µM
MIC90 [17]: > 100 µM
CC50 (HepG2): > 100 µM

CC(=O)NCC1CN(c2ccc(-c3ccc(CO)cc3)c(F)c2)C(=O)O1 (configuration not stated)
MIC90 [1]: 0.32 µM (≈ 0.115 µg/mL)
MIC [2]: 0.1 µM (≈ 0.0358 µg/mL)
MIC [3]: 0.3 µM (≈ 0.108 µg/mL)
MIC [4]: 0.39 µM (≈ 0.14 µg/mL)
MIC [5]: 0.6 µM (≈ 0.215 µg/mL)
MIC [6]: 0.39 µM (≈ 0.14 µg/mL)
MIC [7]: 0.6 µM (≈ 0.215 µg/mL)
MIC [8]: 0.6 µM (≈ 0.215 µg/mL)
MIC [9]: 0.39 µM (≈ 0.14 µg/mL)
MIC [10]: 0.6 µM (≈ 0.215 µg/mL)
MIC [11]: 0.39 µM (≈ 0.14 µg/mL)
MIC [12]: 0.39 µM (≈ 0.14 µg/mL)
MIC90 [13]: 0.39 µM (≈ 0.14 µg/mL)
MIC90 [14]: 0.78 µM (≈ 0.28 µg/mL)
MIC90 [15]: 1.5 µM (≈ 0.538 µg/mL)
MIC [16]: 1.5 µM (≈ 0.538 µg/mL)
MIC90 [17]: 0.49 µM (≈ 0.176 µg/mL)
CC50 (HepG2): > 100 µM

Cc1nnc(NCc2cccc(Cl)c2)c2ccccc12
MIC90 [1]: 4.61 µM (≈ 1.31 µg/mL)
MIC [2]: 0.2 µM (≈ 0.0568 µg/mL)
MIC [3]: 0.6 µM (≈ 0.17 µg/mL)
MIC [4]: 50 µM (≈ 14.2 µg/mL)
MIC [5]: > 50 µM
MIC [6]: 1.56 µM (≈ 0.443 µg/mL)
MIC [7]: > 50 µM
MIC [8]: > 50 µM
MIC [9]: ≥ 50 µM
MIC [10]: > 50 µM
MIC [11]: 19 µM (≈ 5.39 µg/mL)
MIC [12]: > 50 µM
MIC90 [13]: 25 µM (≈ 7.09 µg/mL)
MIC90 [14]: > 50 µM
MIC90 [15]: > 50 µM
MIC [16]: > 50 µM
MIC90 [17]: > 100 µM
CC50 (HepG2): 76 µM

Cc1cc(C)cc(COc2ccc3c(C)c(CCC(=O)O)c(=O)oc3c2C)c1
MIC90 [1]: > 100 µM
MIC [2]: 6.25 µM (≈ 2.38 µg/mL)
MIC [3]: 9.4 µM (≈ 3.58 µg/mL)
MIC [4]: > 50 µM
MIC [5]: > 50 µM
MIC [6]: > 50 µM
MIC [7]: > 50 µM
MIC [8]: > 50 µM
MIC [9]: 50 µM (≈ 19 µg/mL)
MIC [10]: 50 µM (≈ 19 µg/mL)
MIC [11]: > 50 µM
MIC [12]: > 50 µM
MIC90 [13]: > 50 µM
MIC90 [14]: > 50 µM
MIC90 [15]: > 50 µM
MIC [16]: > 50 µM
MIC90 [17]: > 100 µM
CC50 (HepG2): > 100 µM
